Assay results reported in article PMC8817233 (Journal of medicinal chemistry, 2021).
“Also recorded” adds a separate entry of the source. Blank lines part the entries; values can stand above or below the molecule they belong to.

Assays:
[1] = system: Axin2 and cyclin D1 in SW480 and Wnt 3a-activated MDA-MB-231 cells; test: Western blot of Wnt target proteins; format: cell-based, human; conditions: SW480 and Wnt 3a-activated MDA-MB-231, 24 h
TNBC cells = test: Clonogenic assay; format: cell-based
[2] = system: normal mammary epithelial MCF10A cells; test: FACS annexin V/PI apoptosis, normal cells; format: cell-based, human; conditions: 72 h treatment
[3] = Hepatic microsome stability, human; format: in vitro ADME; conditions: liver microsomes, pH 7.4
[4] = Hepatic microsome stability, mouse; format: in vitro ADME; conditions: liver microsomes, pH 7.4
Mouse PK study = format: in vivo, C57BL/6 mice; conditions: p.o., 20 mg/kg
MDA-MB-231 cells [5] = test: Scratch wound healing assay; format: cell-based; conditions: 10% serum, mitomycin 10 μg/mL
MDA-MB-231 cells [6] = test: 3D spheroid BME cell invasion assay; format: cell-based; conditions: day 6
PDX 4013 tumors = test: PDX 4013 TNBC xenograft, tumor growth and tolerability; conditions: 90 mg/kg orally daily in saline, 5 days
BCL9 HD2 (Homo sapiens) = BCL9 HD2 (Homo sapiens) (UniProt O00512); conditions: cited from earlier work
[7] = biological target: T1, purified full-length β-catenin (Homo sapiens, UniProt P35222); test: Streptavidin pull-down with purified protein; format: binding; conditions: Western blot, from 1 μM
T1 sequence (P35222 1-781): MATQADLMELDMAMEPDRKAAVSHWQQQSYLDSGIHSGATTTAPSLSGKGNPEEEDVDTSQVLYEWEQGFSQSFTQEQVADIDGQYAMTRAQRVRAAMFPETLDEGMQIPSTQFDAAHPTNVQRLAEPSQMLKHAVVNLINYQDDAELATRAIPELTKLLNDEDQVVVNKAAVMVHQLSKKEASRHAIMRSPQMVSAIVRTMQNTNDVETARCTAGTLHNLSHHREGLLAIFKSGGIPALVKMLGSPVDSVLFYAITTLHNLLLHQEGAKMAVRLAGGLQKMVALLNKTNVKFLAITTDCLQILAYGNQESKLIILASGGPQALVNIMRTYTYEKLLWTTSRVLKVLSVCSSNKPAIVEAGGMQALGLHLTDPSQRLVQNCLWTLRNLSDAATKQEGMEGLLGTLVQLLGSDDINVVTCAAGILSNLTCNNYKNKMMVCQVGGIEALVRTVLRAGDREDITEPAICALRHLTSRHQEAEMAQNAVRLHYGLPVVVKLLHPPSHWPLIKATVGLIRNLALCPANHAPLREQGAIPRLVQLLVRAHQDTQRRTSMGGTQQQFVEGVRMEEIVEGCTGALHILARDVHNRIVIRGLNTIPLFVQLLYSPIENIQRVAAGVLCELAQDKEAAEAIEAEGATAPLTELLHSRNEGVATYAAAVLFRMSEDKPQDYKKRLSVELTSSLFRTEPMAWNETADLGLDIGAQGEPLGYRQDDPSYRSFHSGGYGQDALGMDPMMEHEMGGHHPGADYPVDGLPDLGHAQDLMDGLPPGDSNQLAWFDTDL

[8] = biological target: T2, β-catenin in SW480 cell lysates (Homo sapiens, UniProt P35222); test: Streptavidin pull-down from cell lysates; format: binding; conditions: 10 μM
T2 sequence (P35222 1-781): T1 sequence (P35222 1-781)

[9] = biological target: T3, β-catenin R1C (residues 138–781) (Homo sapiens, UniProt P35222); test: Streptavidin pull-down with β-catenin truncate; format: binding
T3 sequence (P35222 138-781): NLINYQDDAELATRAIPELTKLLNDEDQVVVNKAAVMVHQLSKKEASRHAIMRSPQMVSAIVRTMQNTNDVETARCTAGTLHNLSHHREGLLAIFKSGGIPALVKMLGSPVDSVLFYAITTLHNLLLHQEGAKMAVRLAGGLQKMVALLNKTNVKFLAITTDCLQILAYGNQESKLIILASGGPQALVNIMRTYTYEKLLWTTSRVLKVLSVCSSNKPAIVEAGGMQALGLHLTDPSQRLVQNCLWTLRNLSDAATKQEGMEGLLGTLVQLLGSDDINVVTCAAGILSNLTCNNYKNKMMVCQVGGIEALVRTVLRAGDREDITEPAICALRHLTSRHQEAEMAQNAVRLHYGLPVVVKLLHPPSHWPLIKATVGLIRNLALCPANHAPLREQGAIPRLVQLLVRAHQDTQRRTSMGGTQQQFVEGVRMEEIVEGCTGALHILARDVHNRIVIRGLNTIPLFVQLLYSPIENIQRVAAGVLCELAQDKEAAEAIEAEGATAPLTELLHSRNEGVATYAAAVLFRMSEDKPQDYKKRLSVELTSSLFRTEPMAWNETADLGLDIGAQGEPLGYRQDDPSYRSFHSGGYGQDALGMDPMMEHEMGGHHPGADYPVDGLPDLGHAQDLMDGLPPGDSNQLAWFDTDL

β-catenin/BCL9 PPI = biological target: T4, β-catenin/BCL9 PPI (Homo sapiens, UniProt P35222); test: AlphaScreen competitive inhibition assay of the β-catenin/BCL9 PPI; format: binding; conditions: for fold less potent than ZW4864 (β-catenin/BCL9 Ki): compared with ZW4864
T4 sequence (P35222 1-781): T1 sequence (P35222 1-781)

[10] = system: β-catenin-expressing HEK293 cells; test: TOPFlash luciferase reporter assay, HEK293; format: cell-based; conditions: 200 μM, 24 h

BCL9 HD2 (Homo sapiens), sequence (O00512 351-374): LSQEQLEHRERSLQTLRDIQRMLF

Molecule: beta-catenin (from UniProt P35222)
Kd (BCL9 HD2 (Homo sapiens)): 470 nM

Molecule: Cl.Cn1cc(-c2ccc(CN(C(=O)[C@@H]3CCCN(c4cccc(OC(C)(C)C(=O)N5CCNCC5)c4)C3)C3CC3)cc2)cn1 [compound 18, (R)-N-Cyclopropyl-1-(3-((2-methyl-1-oxo-1-(piperazin-1-yl)propan-2-yl)oxy)phenyl)-N-(4-(1-methyl-1H-pyrazol-4-yl)benzyl)piperidine-3-carboxamide]
fold less potent than ZW4864 (β-catenin/BCL9 Ki) (β-catenin/BCL9 PPI): 89 fold

Molecule: CN1CCN(C(=O)C(C)(C)Oc2cccc(N3CCC[C@@H](C(=O)N(Cc4ccc(-c5cn[nH]c5)cc4)C4CC4)C3)c2)CC1 [compound 19, (R)-N-(4-(1H-Pyrazol-4-yl)benzyl)-N-cyclopropyl-1-(3-((2-methyl-1-(4-methylpiperazin-1-yl)-1-oxopropan-2-yl)oxy)phenyl)piperidine-3-carboxamide]
TOPFlash luciferase activity, in words [10]: did not show any activity

Molecule: CC(C)c1ccc(CN(C(=O)[C@@H]2CCCN(c3cccc(OC(C)(C)C(=O)N4CCNCC4)c3)C2)C2CC2)cc1.Cl [compound 7, (R)-N-Cyclopropyl-N-(4-isopropylbenzyl)-1-(3-((2-methyl-1-oxo-1-(piperazin-1-yl)propan-2-yl)oxy)phenyl)piperidine-3-carboxamide]
fold more potent than 3 (β-catenin/BCL9 Ki) (β-catenin/BCL9 PPI; compared with 3): 2 fold

Molecule: CC(C)(Oc1cccc(N2CCC[C@@H](C(=O)N(Cc3ccc(-c4ccn[nH]4)cc3)C3CC3)C2)c1)C(=O)N1CCNCC1.Cl [compound 17, (R)-N-(4-(1H-Pyrazol-5-yl)benzyl)-N-cyclopropyl-1-(3-((2-methyl-1-oxo-1-(piperazin-1-yl)propan-2-yl)oxy)phenyl)piperidine-3-carboxamide]
fold less potent than ZW4864 (β-catenin/BCL9 Ki) (β-catenin/BCL9 PPI): 10 fold

Continued, in another order:

microsomal CLint at 1 μM [3]: 18 µL/min/mg | half-life at 1 μM [4]: 9.6 min | CL (Mouse PK study): 51.10 mL/min/kg
Molecule: CC(C)(Oc1cccc(N2CCC[C@@H](C(=O)N(Cc3ccc(-c4cn[nH]c4)cc3)C3CC3)C2)c1)C(=O)N1CCNCC1.Cl [ZW4864, (R)-N-(4-(1H-Pyrazol-4-yl)benzyl)-N-cyclopropyl-1-(3-((2-methyl-1-oxo-1-(piperazin-1-yl)propan-2-yl)oxy)phenyl)piperidine-3-carboxamide]
expression of proteins Axin2 and cyclin D1 (Western blot) [1]: substantially decreased | colony formation (TNBC cells): inhibited colony formation | apoptosis (FACS annexin V/PI) [2]: sparing normal mammary epithelial MCF10A cells | MDA-MB-231 cell migration (MDA-MB-231 cells [5]): suppressed MDA-MB-231 cell migration in a dose-dependent manner | 3D spheroid cell invasion (MDA-MB-231 cells [6]): suppressed MDA-MB-231 cell invasion in a dose-dependent manner | body weight and toxicity (PDX 4013 tumors): no significant decrease in weight or major toxicity issues | tumor growth compared with vehicle (PDX 4013 tumors): a variation in tumor growth

microsomal CLint at 1 μM [3]: 24 µL/min/mg | half-life at 1 μM [4]: 7.7 min
Molecule: CCN(Cc1ccc(-c2cn[nH]c2)cc1)C(=O)[C@@H]1CCCN(c2cccc(OC(C)(C)C(=O)N3CCNCC3)c2)C1.Cl [compound 21, (R)-N-(4-(1H-Pyrazol-4-yl)benzyl)-N-ethyl-1-(3-((2-methyl-1-oxo-1-(piperazin-1-yl)propan-2-yl)oxy)phenyl)piperidine-3-carboxamide]

pull-down of β-catenin R1C ([9]; 10 μM): did not pull down β-catenin R1C | pull-down of β-catenin R1C ([9]; 50 μM): pulled down β-catenin R1C
Molecule: CC(C)(Oc1cccc(N2CCC[C@@H](C(=O)N(CCOCCOCCNC(=O)CCCC[C@@H]3SC[C@@H]4NC(=O)N[C@@H]43)Cc3ccc(-c4cn[nH]c4)cc3)C2)c1)C(=O)N1CCNCC1 [Biotin-ZW4864, (R)-N-(4-(1H-Pyrazol-4-yl)benzyl)-1-(3-((2-methyl-1-oxo-1-(piperazin-1-yl)propan-2-yl)oxy)phenyl)-N-(2-(2-(2-(5-((3aS,4S,6aR)-2-oxohexahydro-1H-thieno[3,4-d]imidazol-4-yl)pentanamido)ethoxy)ethoxy)ethyl)piperidine-3-carboxamide]
pull-down of purified full-length β-catenin [7]: bound with the purified full-length β-catenin in a concentration-dependent manner starting at 1 μM; also recorded: pulled down the full-length β-catenin at 1 μM | binding to β-catenin in SW480 cell lysates [8]: effectively bind with β-catenin in SW480 cell lysates

inhibitory affinity for β-catenin/BCL9 PPI, in words (β-catenin/BCL9 PPI; AlphaScreen, values only in Figure 2B): maintained low μM inhibitory affinities
Molecule: CCOCCN(Cc1ccc(-c2cn[nH]c2)cc1)C(=O)[C@@H]1CCCN(c2cccc(OC(C)(C)C(=O)N3CCNCC3)c2)C1.Cl [compound 22, (R)-N-(4-(1H-Pyrazol-4-yl)benzyl)-N-(2-ethoxyethyl)-1-(3-((2-methyl-1-oxo-1-(piperazin-1-yl)propan-2-yl)oxy)phenyl)piperidine-3-carboxamide]
